Laboratory results from ChEMBL document CHEMBL1201862, “PubChem BioAssay data set” (2004).
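Assay format: 96-well plates, 48-hour exposure. GI50: concentration for 50% inhibition of growth.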 Activity calls are given as the source filed them. Rule as the data show it: active = GI50 up to about 1.1 µM and inactive = higher.

Legend:
Test in all cases: NCI-60 cell line screen, 48 h
MDA-N = test system: MDA-N
OVCAR-8 = test system: OVCAR-8
OVCAR-3 = test system: OVCAR-3
KM12 = test system: KM12
Malme-3M = test system: Malme-3M
RPMI-8226 = test system: RPMI-8226
SK-MEL-5 = test system: SK-MEL-5
OVCAR-5 = test system: OVCAR-5
HL-60 = test system: HL-60
A549 = test system: A549
SK-MEL-2 = test system: SK-MEL-2
TK-10 = test system: TK-10
HCC 2998 = test system: HCC 2998
SK-MEL-28 = test system: SK-MEL-28
COLO 205 = test system: COLO 205
U-251 = test system: U-251
NCI-H522 = test system: NCI-H522
UO-31 = test system: UO-31
M14 = test system: M14
HOP-62 = test system: HOP-62

Measured: GI50

COP1(=S)OCC2CCC[C@@H]2O1 (stereo partly drawn)
inactive: MDA-N > 100 µM | OVCAR-8 > 100 µM | OVCAR-3 > 100 µM | KM12 > 100 µM | Malme-3M > 100 µM | RPMI-8226 > 100 µM | SK-MEL-5 > 100 µM | OVCAR-5 > 100 µM | HL-60 > 100 µM | A549 > 100 µM | SK-MEL-2 > 100 µM | TK-10 > 100 µM | HCC 2998 > 100 µM | SK-MEL-28 > 100 µM | COLO 205 > 100 µM | U-251 > 100 µM | NCI-H522 > 100 µM | UO-31 > 100 µM | M14 > 100 µM

CC(=O)Nc1cc(C(=O)Nc2cc(C(=O)N3CC(CCl)c4c3cc(N)c3ccccc43)nn2C)nn1C (stereo not drawn)
active: MDA-N 0.133 µM | OVCAR-8 0.0209 µM | OVCAR-3 0.23 µM | KM12 0.188 µM | Malme-3M 0.115 µM | RPMI-8226 0.188 µM | SK-MEL-5 0.0178 µM | OVCAR-5 0.31 µM | HL-60 < 0.01 µM | A549 0.187 µM | SK-MEL-2 0.0731 µM | TK-10 0.251 µM | HCC 2998 0.115 µM | SK-MEL-28 0.0782 µM | COLO 205 0.112 µM | HOP-62 0.101 µM | U-251 0.0194 µM | NCI-H522 < 0.01 µM | UO-31 0.294 µM | M14 0.286 µM

CCCCCCCCCCCC[C@@H](O)[C@H]1CCC([C@H](O)CCCCC(=O)CCCCCCCC2=C[C@H](C)OC2=O)O1 (stereo partly drawn)
inactive: MDA-N > 35.2 µM | OVCAR-8 28.5 µM | OVCAR-3 > 50 µM | KM12 13.1 µM | Malme-3M > 50 µM | RPMI-8226 2.5 µM | OVCAR-5 > 50 µM | A549 10.4 µM | SK-MEL-2 > 26.1 µM | TK-10 > 50 µM | HCC 2998 > 50 µM | SK-MEL-28 19.2 µM | COLO 205 12.5 µM | U-251 13.3 µM | NCI-H522 15.4 µM | UO-31 7.16 µM | M14 15 µM
active: SK-MEL-5 0.0315 µM | HL-60 0.991 µM

Cc1ccc(S(=O)(=O)N2CCCCN(S(=O)(=O)c3ccc(C)cc3)Cc3ccccc3OCCOCCOc3c4cccc3Cc3cccc5c3OCCOCCOc3ccccc3CN(S(=O)(=O)c3ccc(C)cc3)CCCN(S(=O)(=O)c3ccc(C)cc3)Cc3ccccc3OCCOCCOc3c(cccc3C4)Cc3cccc(c3OCCOCCOc3ccccc3C2)C5)cc1
inactive: MDA-N > 100 µM | OVCAR-8 > 100 µM | OVCAR-3 > 100 µM | KM12 > 100 µM | Malme-3M > 100 µM | RPMI-8226 > 100 µM | SK-MEL-5 > 100 µM | OVCAR-5 > 100 µM | A549 > 100 µM | SK-MEL-2 > 100 µM | TK-10 > 100 µM | HCC 2998 > 100 µM | COLO 205 > 100 µM | HOP-62 > 100 µM | U-251 > 100 µM | NCI-H522 78.9 µM | UO-31 > 100 µM | M14 > 100 µM

CC1(C)OC(=C(C#N)C#N)C(C#N)=C1/C=C/c1ccncc1
inactive: MDA-N 2.58 µM | OVCAR-8 1.75 µM | OVCAR-3 1.84 µM | KM12 3.8 µM | Malme-3M 2.61 µM | RPMI-8226 1.65 µM | SK-MEL-5 4.37 µM | OVCAR-5 2.89 µM | A549 11.4 µM | SK-MEL-2 2.66 µM | TK-10 2.08 µM | HCC 2998 4.9 µM | SK-MEL-28 2.39 µM | COLO 205 1.88 µM | HOP-62 1.66 µM | U-251 1.85 µM | NCI-H522 2.05 µM | UO-31 3.24 µM | M14 2.56 µM

COc1cc([C@@H]2C3C(=O)c4ccccc4C3[C@@H](c3cc(OC)c(OC)c(OC)c3)C23Cc2ccccc2C3=O)cc(OC)c1OC (stereo partly drawn)
inactive: MDA-N > 100 µM | OVCAR-8 > 100 µM | OVCAR-3 > 100 µM | KM12 > 100 µM | Malme-3M > 100 µM | RPMI-8226 37.8 µM | SK-MEL-5 > 100 µM | OVCAR-5 > 100 µM | HL-60 > 100 µM | A549 > 100 µM | TK-10 > 100 µM | HCC 2998 > 100 µM | SK-MEL-28 > 100 µM | COLO 205 > 100 µM | HOP-62 > 100 µM | U-251 > 100 µM | NCI-H522 > 100 µM | UO-31 > 100 µM | M14 > 100 µM

COCN1C(=O)[C@@H]2C[C@@H](O)CN2C(=O)c2ccccc21
inactive: MDA-N > 100 µM | OVCAR-8 > 100 µM | KM12 > 100 µM | Malme-3M > 100 µM | RPMI-8226 > 100 µM | SK-MEL-5 > 100 µM | OVCAR-5 > 100 µM | HL-60 60.5 µM | A549 > 100 µM | SK-MEL-2 > 100 µM | TK-10 > 100 µM | HCC 2998 > 100 µM | SK-MEL-28 > 100 µM | COLO 205 > 100 µM | HOP-62 > 100 µM | U-251 > 100 µM | NCI-H522 > 100 µM | UO-31 > 100 µM | M14 > 100 µM
